# US12527794B2, “Compositions, formulations, and methods for hair treatment” (Oddity Labs, LLC, priority 2021, dated 2026)
# Columns and labels:
# [1] = test system: human hair follicle dermal papilla cells (hFDPC); assay: Human follicle dermal papilla cell (hFDPC) proliferation, cell viability assay; type: cell-based; conditions: hFDPCs supplemented with BIO, BMP-2 and FGFβ
# Description: The ability of a compound or salt of the present disclosure to increase proliferation of human hair follicle dermal papilla cells (hFDPC) was tested using a cell viability assay, such as the Promega CellTiter-Glo® Luminescent Cell Viability Assay, MTT cell proliferation assay (ATCC® 30-1010K) or cell counting. […] In Table 8, A represents less than 20% of increased proliferation of hFDPCs, B represents 20-40%, and C represents larger than 40% of increased proliferation of hFDPCs. For this assay, hFDPCs were cultured on tissue culture-treated plastic and supplemented with 6-bromoindirubin-39-Oxime (BIO), recombinant bone morphogenetic protein-2 (BMP-2), and basic fibroblast growth factor (FGFβ), whose combination was previously found to preserve in situ dermal papilla gene signatures.
# [2] = test system: follicle dermal papilla cells; assay: Reactive oxygen species (ROS) activity in follicle dermal papilla cells; type: cell-based; conditions: 5 μg/mL, 24 hr, relative to vehicle control 0.1% v/v DMSO
# Description: Normalized reactive oxygen species (ROS) activity in follicle dermal papilla cells were analyzed after treatment with 5 μg/mL exemplary compounds relative to vehicle control (0.1% v/v DMSO) after 24 hr. The increase in ROS levels is harmful on cell mhemeostasis, structures, and functions and results in oxidative stress.
# HepG2 cells = assay: Caspase 3/7 activity in HepG2 cells; type: cell-based; conditions: HepG2, >2-log concentration range
# Description: (§1) Cells were treated with either the exemplary compounds or vehicle control containing correspondingly % v/v-matched amounts of DMSO spanning a >2-log concentration range. Data represents mean±s.d. and representative of at least 2 experimental replicates.
# as §1, with “HepG2 cells are an immortalized liver cell line commonly used to study apoptosis induced by small molecules. Cells” for “Cells”
# bacteria = assay: SOS chromotest (β-galactosidase activity); type: cell-based; conditions: varying concentrations; 4-NQ as known genotoxin
# Description: The SOS chromotest is a well-established bacteria-based test for genotoxicity.
# (§2) The safety/toxicology profiles of a compound or salt of the present disclosure was evaluated via a series of in vitro genotoxicity assays, including the SOS-chromotest to determine bacterial genotoxicity, and the TK.6 micronucleus assay to determine chromosomal damage and forward mutations. Standard reactive oxygen species (ROS) and caspase 3/7 assay were conducted to determine general cellular toxicity. Moreover, a series of sensitization tests were conducted to predict any potential skin sensitivity. These include the direct peptide reactivity assay to evaluate haptenization, the KeratinoSens reporter assay to determine potential sensitivity via the activation of a cytoprotective pathway, and an immunological assay using human immature monocyte-derived dendritic cells to evaluate any potential immunogenicity.
# TK.6 lymphoblasts = assay: TK.6 micronucleus assay; type: cell-based
# Description: as §2
# TK.6 lymphoblasts are a well-studied cell line commonly used for gene mutation analyses. They are heterozygous for the thymidine kinase gene (TK) and enable the detection of forward mutations and chromosomal damage, which manifests as micronuclei and are detectable via flow cytometry.
# TK.6 cells were dosed with the exemplary compounds or a vehicle control (0.1% v/v DMSO) and cultured with or without S9 metabolic activation for 24 hr. […] Methyl methanesulfonate, a known genotoxic, alkylating agent was used as a positive control for micronuclei detection.
# The micronucleus assay was also performed to determine if the compounds are genotoxic by evaluating the presence of micronuclei. […] I-17 elicited genotoxicity at >3.125 μg/mL.
# [3] = test system: Human follicle papilla cells; assay: Functional stability across pH and temperature (follicle papilla cell proliferation); type: cell-based; conditions: pre-treated 7 days in pH-adjusted water at varying temperatures; cells dosed 5 μg/mL, 48 hr
# Description: FIGS. 7A and 7B show normalized proliferation follicle papilla cell proliferation after 48 hr following treatment with the exemplary compound (VII-3) pre-treated across a range of pH conditions (FIG. 7A) and temperature conditions (FIG. 7B). Data represents mean±s.d. and representative of n=2 donors.
# An exemplary compound (VII-3) was prepared in various solvents (DMSO; dimethyl sulfoxide, DMI; dimethyl isosorbide, or a 1:1 mixture of dimethyl isosorbide and ethanol), the diluted in pH-adjusted water and left at varying temperatures for 7 days. Human follicle papilla cells were dosed at 5 μg/mL with the exemplary compound and further supplemented with 6-bromoindirubin-39-Oxime (BIO), recombinant bone morphogenetic protein-2 (BMP-2), and basic fibroblast growth factor (FGFβ), whose combination was previously found to preserve in vivo dermal papilla gene signatures. Normalized proliferation follicle papilla cell proliferation was analyzed after 48 hr following the treatment with the exemplary compound pre-treated across a range of pH conditions (FIG. 7A) and temperature conditions (FIG. 7B). Data represents mean±s.d. and representative of n=2 donors.
# female subjects = assay: Clinical consumer perception study; type: in vivo, human; conditions: 0.02% v/v water-based formula every 2 days, 6 weeks, 32 subjects completed
# Description: Photographs were taken after 6 weeks. Subjects were female and ranged in age from 27-65 years. Subjects used a simple, water-based formula containing an exemplary compound (at 0.02% v/v) every 2 days in the morning or night on dry or towel-dried hair. Approximately 2 mL was applied directly to the hairline. No randomization was required for the study and subjects were blinded to the name of the test material.
# The clinical test was performed by Eurofins|CRL, Inc. The test followed established, standardized procedures for clinical testing designed to ensure the well-being of clinical study subjects and the generation of reliable study data. Subjects were female and ranged in age from 27-65 years. Subjects used a simple, water-based formula containing a exemplary compound, VII-3 (at 0.02% v/v) every 2 days in the morning or night on dry or towel-dried hair. Approximately 2 mL was applied directly to the hairline. No randomization was required for the study and subjects were blinded to the name of the test material.
# Photographs of subjects' hair were taken 6 weeks after the treatment with the representative compounds (FIG. 6). Subjects were female and ranged in age from 27-65 years. Subjects used a simple, water-based formula containing an exemplary compound VII-3 (at 0.02% v/v) every 2 days in the morning or night on dry or towel-dried hair. […]
# Nrf2-ARE pathway = assay: KeratinoSens Nrf2-ARE luciferase reporter assay; type: cell-based; conditions: cinnamic aldehyde as known sensitizing compound
# Description: The Nrf2-ARE pathway is a master regulator of cytoprotective responses to oxidative stress, and is an early indicator of skin sensitization. Nrf2 (nuclear factor erythroid 2-related factor) is a transcription factor that binds to antioxidant responsive elements (ARE). By fusing ARE to the light-producing luciferase gene, a KeratinoSens Nrf2-ARE reporter assay was performed whereby luciferase signal is directly correlated to Nrf2-ARE pathway activation.
# Normalized ARE-luciferase activity was measured using a known sensitizing compound (cinnamic aldehyde) and exemplary compounds.
SMILES,Percent Increase Proliferation of hFDPCs (%) [1],normalized caspase 3/7 activity (HepG2 cells),"genotoxic effects, normalized β-galactosidase activity (bacteria)",micronuclei formation / genotoxic effect in TK.6 cells (TK.6 lymphoblasts),further results
"C=CCc1cc(/C=C2\C(=O)NC(=S)N(c3ccccc3OC)C2=O)cc(OCC)c1O [Compound I-18, 4,6(1H,5H)-Pyrimidinedione, 5-[[3-ethoxy-4-hydroxy-5-(2-propen-1-yl)phenyl]methylene]dihydro-1-(2-methoxyphenyl)-2-thioxo-]",B (B represents 20-40%),,,,normalized ROS level [2]: higher than other compounds
"CCC(=O)N1CCN(c2nnc(-c3ccc(C)cc3)c3ccccc23)CC1 [II-4, 1-Propanone, 1-[4-[4-(4-methylphenyl)-1-phthalazinyl]-1-piperazinyl]-]",,did not exhibit any caspase activation,did not exhibit any genotoxic effects,do not promote any micronuclei formation,
"CSc1nc(-c2ccco2)nn1S(C)(=O)=O [VII-3, 1H-1,2,4-Triazole, 3-(2-furanyl)-1-(methylsulfonyl)-5-(methylthio)-]",,did not exhibit any caspase activation,did not exhibit any genotoxic effects,,functional stability (normalized follicle papilla cell proliferation after pre-treatment) [3]: functionally stable across physiologically-relevant pH and temperature ranges; Adverse effects (female subjects): 0/32 (0%)
"C=CCc1cc(/C=C2\C(=O)NC(=S)N(c3ccc(OC)cc3)C2=O)cc(OC)c1O [Compound I-17, 4,6(1H,5H)-Pyrimidinedione, dihydro-5-[[4-hydroxy-3-methoxy-5-(2-propen-1-yl)phenyl]methylene]-1-(4-methoxyphenyl)-2-thioxo-]",C (C represents larger than 40% of increased proliferation of hFDPCs),significant caspase-3/7 activation at the highest concentration,,,concentration eliciting genotoxicity in TK.6 micronuclei assay (TK.6 lymphoblasts; 24 hr): > 3.125 µg/mL
COC(=O)c1c(S(C)(=O)=O)[nH]c(-c2ccccc2)nc1=O [VII-1],,did not exhibit any caspase activation,did not exhibit any genotoxic effects,do not promote any micronuclei formation,"sensitizing potential, normalized ARE-luciferase activity (Nrf2-ARE pathway): exhibited sensitizing potential"
"COc1ccc(CCCc2nc3ccccc3[nH]2)cc1 [VII-14, 1H-Benzimidazole, 2-[3-(4-methoxyphenyl)propyl]-]",,did not exhibit any caspase activation,,do not promote any micronuclei formation,
"COc1cc([N+](=O)[O-])cc(/C=C2\C(=O)NC(=O)N(C)C2=O)c1O [Compound I-15, 2,4,6(1H,3H,5H)-Pyrimidinetrione, 5-[(2-hydroxy-3-methoxy-5-nitrophenyl)methylene]-1-methyl-]",B (B represents 20-40%),,,,
